Test results published in BindingDB's records for doi:10.1021/jm500228a (Gilead Sciences, 2014).

Test: Inhibition of Flt3 in human MV411 cells assessed as assessed as proliferation after 72 hrs incubation by spectrophotometry

## c1cn2cc(-c3ccc4cn[nH]c4c3)nc(Nc3ccc(N4CCOCC4)cc3)c2n1
  EC50: 327 nM
